Test system: Platelet
Test: Tumor cell (Lewis Lung Carcinoma, 3LL) induced platelet aggregation (TCIPA)
Type: cell-based, human
Settings: 3LL cells
Experimental: Blood (45 ml) was drawn from the […] vein of healthy, fasted, aspirin free (at least two weeks) human volunteers into a plastic syringe containing 5 ml of 4.8% dextrose with 50 U/ml heparin buffered by 25 mM HEPES, pH 7.5. An 18 gauge needle was used to prevent hemolysis. The heparinized blood was gently mixed by inverting the syringe five times and then the blood was transfused into two 40 ml plastic centrifuge tubes and centrifuged for 10 min at 163×g. The resulting platelet rich plasma (PRP; the supernatant fraction) was decanted using an adjustable SMI pipette set at 6 ml. Platelet poor plasma (PPP) was prepared by centrifugation of PRP for 10 min at 1086×g. Platelet poor plasma was used to standardize the platelet concentration in PRP to 3×10^8 /ml. Platelet concentrations were determined using a Coulter Model ZBI cell counter.
Platelet aggregation was measured photometrically using a Sienco Model DP-247E dual channel aggregometer and recorded on a Sienco Model B-5000 dual channel recorder. Aliquots of PRP (250 microliters at 3×10^8 platelets/ml) were transferred into aggregometry cuvettes and stirred at a constant speed of 800 RPM at 37° C. Platelet aggregation studies were designed and run as individually controlled samples. BAY e 9736 was dissolved in either PEG-400 or […] (DMSO).
BAY e 9736 in PEG-400 alone was aliquoted into the cuvettes prior to the addition of the PRP. Immediately after the addition of the PRP, the cuvettes were placed into the aggregometer. After two minutes (to allow for the stabilization of the platelet preparation and mixing of the BAY e 9736), ADP or tumor cells were added in 20 microliter aliquots to induce platelet aggregation.
The calcium channel blocker nifedipine was tested for its ability to inhibit tumor cell induced platelet aggregation (TCIPA). Nifedipine (20 mg) was dissolved in one milliliter of abolute ethanol:PEG-400 (1:1), and then diluted 1:10 with the same ethanol:PEG-400 mixture. […]

For `COC(=O)C1=C(C)NC(C)=C(C(=O)OC)C1c1ccccc1[N+](=O)[O-]` [nifedipine], the “effect on tumor cell induced platelet aggregation (in words)” value was “can inhibit TCIPA in a dose dependent fashion”, the inhibition at 15 µg/mL (Homo sapiens, 0.015 mg/ml, read-out: INHIBITION OF CONTROL TCIPA) was 22% and the inhibition at 150 µg/mL (Homo sapiens, 0.15 mg/ml, read-out: INHIBITION OF CONTROL TCIPA) was 42%.

— US4690935A, “Inhibition of tumor growth and metastasis with calcium channel blocker compounds” (Wayne State University, priority 1983, dated 1987)
